Results as given in patent US9522907B2, “Anticancer agent and process for the preparation thereof” (COUNCIL OF SCIENTIFIC & INDUSTRIAL RESEARCH, priority 2014, dated 2016).

Key:
Experiment in all cases: cells
Format in all cases: cell-based
[1] = system: Leukemia cancer cell lines; settings: Homo sapiens; Leukemia; average of cell lines of the cancer type; read-out: Log10 GI50 mean graph midpoint (MG_MID) (converted)
Source text: (§1) The mean graph midpoint values of Log10 GI50 as well as Log10 LC50 for the compounds 2i, 5i and Hoechst 33258 (NSC-322921) is listed in Table 2.
(§2) Each cancer type represents the average of six to eight different cancer cell lines.

[2] = system: Melanoma cancer cell lines; settings: Homo sapiens; Melanoma; average of cell lines of the cancer type; read-out: Log10 GI50 mean graph midpoint (MG_MID) (converted)
Source text: as §1, §2

[3] = system: Ovarian cancer cell lines; settings: Homo sapiens
Source text: as §1, §2

Renal cancer cell lines = settings: Homo sapiens
Source text: as §1, §2

[4] = system: Non-small-cell lung cancer cell lines; settings: Homo sapiens; Non-small-cell lung; average of cell lines of the cancer type; read-out: Log10 GI50 mean graph midpoint (MG_MID) (converted)
Source text: as §1, §2

Colon cancer cell lines = settings: Homo sapiens; Colon; average of cell lines of the cancer type; read-out: Log10 GI50 mean graph midpoint (MG_MID) (converted)
Source text: as §1, §2

[5] = system: Prostate cancer cell lines; settings: Homo sapiens
Source text: as §1, §2

Breast cancer cell lines = settings: Homo sapiens
Source text: as §1, §2

CNS cancer cell lines = settings: Homo sapiens
Source text: as §1, §2

[6] = read-out: Log10 LC50 mean graph midpoint (MG_MID) (converted)

CN1CCN(c2ccc3nc(-c4ccc5nc(-c6ccc(O)cc6)[nH]c5c4)[nH]c3c2)CC1 [Hoechst 33258, reference compound]
GI50 [1]: 18.6 µM
GI50 [2]: 25.1 µM
CC50 [3, 6]: 1200 µM
GI50 ([3]; Ovarian, average of cell lines of the cancer type, read-out: Log10 GI50 mean graph midpoint (MG_MID) (converted)): 195 µM
CC50 (Renal cancer cell lines; [6]): 1260 µM
GI50 (Renal cancer cell lines; Renal, average of cell lines of the cancer type, read-out: Log10 GI50 mean graph midpoint (MG_MID) (converted)): 166 µM
GI50 [4]: 115 µM
GI50 (Colon cancer cell lines): 79.4 µM
CC50 [5, 6]: 1410 µM
GI50 ([5]; Prostate, average of cell lines of the cancer type, read-out: Log10 GI50 mean graph midpoint (MG_MID) (converted)): 631 µM
CC50 (Breast cancer cell lines; [6]): 1450 µM
GI50 (Breast cancer cell lines; Breast, average of cell lines of the cancer type, read-out: Log10 GI50 mean graph midpoint (MG_MID) (converted)): 21.4 µM
CC50 (CNS cancer cell lines; [6]): 1320 µM
GI50 (CNS cancer cell lines; CNS, average of cell lines of the cancer type, read-out: Log10 GI50 mean graph midpoint (MG_MID) (converted)): 132 µM
